From patent US20140364431A1, “Quinoline and cinnoline derivatives and their applications” (Shenyang Pharmaceutical University, priority 2011, published 2014)
Values after ≈ are worked out from the molar mass of the structure shown. Read-outs that look alike come from different tables or passages of the source.

Tests used:
[1] = tested on: H460 (human lung cancer cell); assay: In vitro anti-tumor cellular activity (MTT), H460; assay type: cell-based; conditions: for IC50: Homo sapiens, read-out: H460 IC50
[2] = tested on: U87MG (Human malignant glioblastoma cells); assay: In vitro anti-tumor cellular activity (MTT), U87MG; assay type: cell-based; conditions: for IC50: Homo sapiens, U-87 MG, read-out: U87MG IC50
[3] = tested on: HT-29 (colon cancer cell); assay: In vitro anti-tumor cellular activity (MTT), HT-29; assay type: cell-based, human; conditions: for IC50: Homo sapiens, read-out: HT-29 IC50
[4] = tested on: MKN-45 (human gastric carcinoma cell); assay: In vitro anti-tumor cellular activity (MTT), MKN-45; assay type: cell-based; conditions: for IC50: Homo sapiens, read-out: MKN-45 IC50
[5] = tested on: SMMC-7721 (hepatoma cell); assay: In vitro anti-tumor cellular activity (MTT), SMMC-7721; assay type: cell-based, human; conditions: for IC50: Homo sapiens, read-out: SMMC-7721 IC50
[6] = target: T1, c-Met (His-tagged recombinant human Met (Amino acids 974-ends)) (Homo sapiens, UniProt P08581); assay: c-Met kinase assay (ELISA); assay type: biochemical; conditions: 50 pM c-Met, 5 μM ATP, 20 min
T1 construct: His-tagged recombinant human Met (Amino acids 974-ends); His; host or cells: baculovirus expression
T1 sequence (P08581 974-1390 limits assumed): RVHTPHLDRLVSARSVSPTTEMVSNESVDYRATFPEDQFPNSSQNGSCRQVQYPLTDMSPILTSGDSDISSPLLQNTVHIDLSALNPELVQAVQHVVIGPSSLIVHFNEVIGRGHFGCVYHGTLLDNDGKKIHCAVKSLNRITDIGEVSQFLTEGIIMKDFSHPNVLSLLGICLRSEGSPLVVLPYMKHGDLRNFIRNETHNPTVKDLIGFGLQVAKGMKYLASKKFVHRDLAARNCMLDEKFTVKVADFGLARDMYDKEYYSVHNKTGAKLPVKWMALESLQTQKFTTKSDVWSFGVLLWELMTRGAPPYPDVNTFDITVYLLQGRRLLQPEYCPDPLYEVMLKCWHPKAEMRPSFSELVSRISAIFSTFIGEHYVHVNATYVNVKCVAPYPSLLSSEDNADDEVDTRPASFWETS
Description: c-Met kinase activity was measured with an ELISA reader.
The reaction mixture was removed by washing with 0.2 μg/mL conjugated horseradish peroxidase (HRP) monoclonal antibody specific for phosphotyrosine (PY20) detecting phosphorylation of the substrate polymer. 1M phosphoric acid was added to terminate the color, the chromogenic substrate (TMB) was tested by spectrophotometry at 450 nm.

Row | IC50 [6] [nM] | Compound | H460 IC50 ([1]; MTT, 72 hours, H460) [µg/mL] | U87MG IC50 ([2]; MTT, 72 hours, U87MG) [µg/mL] | HT-29 IC50 ([3]; MTT, 72 hours, HT-29) [µg/mL] | MKN-45 IC50 ([4]; MTT, 72 hours, MKN-45) [µg/mL] | SMMC-7721 IC50 ([5]; MTT, 72 hours, SMMC-7721) [µg/mL] | IC50 ([1]; NCI-H460, 72 h) [µg/mL] | IC50 ([2]; 72 h) [µg/mL] | IC50 ([3]; HT-29, 72 h) [µg/mL] | IC50 ([4]; MKN-45, 72 h) [µg/mL] | IC50 ([5]; SMMC-7721, 72 h) [µg/mL] | other results
1 | – | N-(3-fluoro-4-((6-methoxy-7-(3-(piperidin-1-yl)propoxy)quinolin-4-yl)oxy)phenyl)-1-(2-(tr ifluoromethyl)phenyl)-4-oxo-1,4-dihydrocinnoline-3-carboxamide dihydrochloride [Example 5] | 0.77 | 1.2 | 0.42 | 0.2 | 0.25 | – | – | – | – | – | –
2 | – | N-(3-fluoro-4-((6-methoxy-7-(3-(piperidin-1-yl)propoxy)quinolin-4-yl)oxy)phenyl)-1-(2-ch lorophenyl)-4-oxo-1,4-dihydrocinnoline-3-carboxamide dihydrochloride [Example 2] | 0.052 | 0.35 | 0.19 | 0.007 | 0.3 | – | – | – | – | – | –
3 | – | COc1cc2c(Oc3ccc(NC(=O)c4nn(-c5cccc(F)c5)c5ccccc5c4=O)cc3F)ccnc2cc1OCCCN1CCCCC1 [Example 9, N-(3-fluoro-4-((6-methoxy-7-(3-(piperidin-1-yl)propoxy)quinolin-4-yl)oxy)phenyl)-1-(3-fluorophenyl)-4-oxo-1,4-dihydrocinnoline-3-carboxamide] | – | – | – | – | – | 0.007 (≈ 0.0101 µM) | 1.2 (≈ 1.73 µM) | 0.17 (≈ 0.246 µM) | 0.0075 (≈ 0.0108 µM) | 0.65 (≈ 0.94 µM) | –
4 | – | COc1cc2c(Oc3ccc(NC(=O)c4nn(-c5cc(C(F)(F)F)ccc5Cl)c5ccccc5c4=O)cc3F)ccnc2cc1OCCCN1CCCC1 [Example 22, N-(3-fluoro-4-((6-methoxy-7-(3-(pyrrolidin-1-yl)propoxy)quinolin-4-yl)oxy)phenyl)-1-(2-chloro-5-(trifluoromethyl)phenyl)-4-oxo-1,4-dihydrocinnoline-3-carboxamide] | – | – | – | – | – | 0.54 (≈ 0.709 µM) | 0.96 (≈ 1.26 µM) | 0.81 (≈ 1.06 µM) | 0.28 (≈ 0.367 µM) | 0.54 (≈ 0.709 µM) | –
5 | – | COc1cc2c(Oc3ccc(NC(=O)c4nn(-c5cccc(F)c5)c5ccccc5c4=O)cc3F)cnnc2cc1OCCCN1CCN(C)CC1 [Example 62, N-(3-fluoro-4-((6-methoxy-7-(3-(4-methylpiperazin-1-yl)propoxy)cinnolin-4-yl)oxy)phenyl)-1-(3-fluorophenyl)-4-oxo-1,4-dihydrocinnoline-3-carboxamide] | – | – | – | – | – | – | – | – | – | – | IC50 ([1]; NCI-H460, MTT, 72 hours, H460): 0.8 µg/mL (≈ 1.13 µM); IC50 ([2]; MTT, 72 hours, U87MG): 1.4 µg/mL (≈ 1.98 µM); IC50 ([3]; MTT, 72 hours, HT-29): 2.1 µg/mL (≈ 2.97 µM); IC50 ([4]; MTT, 72 hours, MKN-45): 3.6 µg/mL (≈ 5.09 µM); IC50 ([5]; MTT, 72 hours, SMMC-7721): 2.1 µg/mL (≈ 2.97 µM)
6 | – | N.N.[Cl][Pt][Cl] [Cisplatin, reference compound] | 0.23 | 0.19 | 1 | 0.68 | 0.9 | – | – | – | – | – | –
7 | 1180 | COc1cc2c(Oc3ccc(NC(=O)c4nn(-c5ccccc5F)c5ccccc5c4=O)cc3F)cnnc2cc1OCCCN1CCCC1 [Example 63, N-(3-fluoro-4-((6-methoxy-7-(3-(pyrrolidin-1-yl)propoxy)cinnolin-4-yl)oxy)phenyl)-1-(2-fluorophenyl)-4-oxo-1,4-dihydrocinnoline-3-carboxamide] | – | – | – | – | – | – | – | – | – | – | IC50 ([1]; NCI-H460, MTT, 72 hours, H460): 1.6 µg/mL (≈ 2.36 µM); IC50 ([2]; MTT, 72 hours, U87MG): 1.8 µg/mL (≈ 2.65 µM); IC50 ([3]; MTT, 72 hours, HT-29): 1.3 µg/mL (≈ 1.92 µM); IC50 ([5]; MTT, 72 hours, SMMC-7721): 0.9 µg/mL (≈ 1.33 µM)
8 | – | COc1cc2c(Oc3ccc(NC(=O)c4nn(-c5c(Cl)cccc5Cl)c5ccccc5c4=O)cc3F)ccnc2cc1OCCCN1CCCC1 [Example 31, N-(3-fluoro-4-((6-methoxy-7-(3-(pyrrolidin-1-yl)propoxy)quinolin-4-yl)oxy)phenyl)-1-(2,6-dichlorophenyl)-4-oxo-1,4-dihydrocinnoline-3-carboxamide] | – | – | – | – | – | 0.77 (≈ 1.06 µM) | 0.26 (≈ 0.357 µM) | 0.27 (≈ 0.371 µM) | 0.18 (≈ 0.247 µM) | 0.33 (≈ 0.453 µM) | –
9 | 902 | COc1cc2c(Oc3ccc(NC(=O)c4nn(-c5ccc(Br)cc5)c5ccccc5c4=O)cc3F)cnnc2cc1OCCCN1CCCCC1 [Example 65, N-(3-fluoro-4-((6-methoxy-7-(3-(piperidin-1-yl)propoxy)cinnolin-4-yl)oxy)phenyl)-1-(4-bromophenyl)-4-oxo-1,4-dihydrocinnoline-3-carboxamide] | – | – | – | – | – | – | – | – | – | – | –

Row | Compound | IC50 [6] [nM] | H460 IC50 ([1]; MTT, 72 hours, H460) [µg/mL] | U87MG IC50 ([2]; MTT, 72 hours, U87MG) [µg/mL] | HT-29 IC50 ([3]; MTT, 72 hours, HT-29) [µg/mL] | MKN-45 IC50 ([4]; MTT, 72 hours, MKN-45) [µg/mL] | SMMC-7721 IC50 ([5]; MTT, 72 hours, SMMC-7721) [µg/mL] | IC50 ([1]; NCI-H460, 72 h) [µg/mL] | IC50 ([2]; 72 h) [µg/mL] | IC50 ([3]; HT-29, 72 h) [µg/mL] | IC50 ([4]; MKN-45, 72 h) [µg/mL] | IC50 ([5]; SMMC-7721, 72 h) [µg/mL] | other results
10 | COc1cc2c(Oc3ccc(NC(=O)c4nn(-c5ccc(Cl)cc5Cl)c5ccccc5c4=O)cc3F)cnnc2cc1OCCCN1CCCC1 [Example 70, N-(3-fluoro-4-((6-methoxy-7-(3-(pyrrolidin-1-yl)propoxy)cinnolin-4-yl)oxy)phenyl)-1-(2,4-dichlorophenyl)-4-oxo-1,4-dihydrocinnoline-3-carboxamide] | 959 | – | – | – | – | – | 2.6 (≈ 3.56 µM) | 2.1 (≈ 2.88 µM) | 3.2 (≈ 4.39 µM) | – | 1.8 (≈ 2.47 µM) | –
